Measurements published in patent US20180327367A1, “MACROCYCLIC BROAD SPECTRUM ANTIBIOTICS” (priority 2015, published 2018).
≈ marks a conversion by molar mass, not a printed value. Where two headings read alike, the source gives them in different places.

What was measured:
[1] = test system: Methicillin Resistant Staphylococcus aureus strain USA 300, NRS384; assay: Minimum inhibitory concentration, broth micro-dilution (CLSI), S. aureus; format: cell-based; details: Staphylococcus aureus, MRSA / NRS 384 / USA300, 22 h, 35° C., 22 hours
How it was run: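 Colonies grown 20 hours at 35° C were suspended in cation-adjusted Mueller Hinton Broth with 0.002% Tween-80. Cells were then added to 2-fold compound dilutions starting at 4 or 0.5 μg/mL, at OD600 0.0005.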

[2] = test system: Escherichia coli MC4100 harboring the IMP4213 (E. coli IMP); assay: microbe, parasite or virus in culture; format: cell-based; details: Escherichia coli, 22 h, read-out: MIC (μg/mL) E. coli IMP, E. coli MC4100 IMP4213, increased outer-membrane permeability; 35° C., 22 hours
How it was run: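 Broth micro-dilution per CLSI in cation-adjusted Mueller Hinton Broth with 0.002% Tween-80; E. coli MC4100 carries IMP4213, raising outer-membrane permeability. Compounds tested as 2-fold serial dilutions (10 concentrations) from 4 μg/mL (protocol 2) or 0.5 μg/mL (protocol 3); inoculum OD600 0.0005, 35° C for 22 hours.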

[3] = test system: Escherichia coli ATCC 25922; assay: Minimum inhibitory concentration, broth micro-dilution (CLSI), E. coli; format: cell-based; details: Escherichia coli, ATCC25922, 22 h, 35° C., 22 hours
[4] = target: T1, SpsB (Staphylococcus aureus signal peptidase) (Staphylococcus aureus, UniProt P0A070); assay: cell-based; format: biochemical; details: SpsB IC50, whole-cell S. aureus (USA300 background, overexpressing SpsB) as SpsB source; fluorogenic peptide substrate, kinetic read 30 min
T1 construct: This assay uses a suspension of Staphylococcus aureus cells as a source of SpsB instead of recombinant SpsB protein; endogenous in cells; host or cells: S. aureus, USA300 background, overexpressing SpsB (whole-cell suspension from frozen pellets)
T1 sequence (P0A070 whole entry): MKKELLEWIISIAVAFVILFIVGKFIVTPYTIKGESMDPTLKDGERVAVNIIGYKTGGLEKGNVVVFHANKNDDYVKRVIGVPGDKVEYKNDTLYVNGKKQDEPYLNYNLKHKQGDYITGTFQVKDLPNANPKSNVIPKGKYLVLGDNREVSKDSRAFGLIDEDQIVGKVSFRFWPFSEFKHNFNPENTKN
How it was run: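 Whole S. aureus cells (USA300, overexpressing SpsB) in PBS with MgCl2, CaCl2 and 0.1% Tween-80 served as enzyme source, mixed with 20 μM stock of (Dabcyl)βAla-KPAKAAE(Edans) substrate before use. Fluorescence (ex 340/em 490 nm) read kinetically over 30 min. IC50 from reaction rate versus 11-point inhibitor concentration.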

[5] = test system: Escherichia coli strain ATCC 25922; assay: Neutropenic thigh infection model; format: in vivo; details: neutropenic CD-1 mice, E. coli ATCC 25922, infusion 23 hours, 24 hours post infection, FIG. 1
Protocol: The ability of a compound to inhibit an infection of a bacterial pathogen can be measured using a murine neutropenic thigh infection model. The reduction of bacterial burden is a measure of antibacterial activity in vivo.
Jugular vein cannulated CD-1 mice were subjected to induced neutropenia (<100 cells/mm^3) by injecting 150 mg/kg and 100 mg/kg cyclophosphamide at day −5 and day −2 respectively. At day −1, saline was infused at […] for 12 hours using Harvard Apparatus PHD 2000 Infusion pumps. At day 0, mice were infected in the thigh muscle with 1×10^5 CFU/50 μL of Escherichia coli strain ATCC 25922. […]
At 24 hours post infection, bacterial burden in the thigh muscle was determined by plating the tissue homogenate in serial dilutions on blood agar plates.

[6] = MRSA USA 300 NRS384, read-out: MIC (μg/mL) S. aureus
[7] = E. coli ATCC 25922, read-out: MIC (μg/mL) E. coli
[8] = read-out: MIC (μg/mL) S. aureus, MRSA USA 300 NRS384
[9] = read-out: MIC (μg/mL) E. coli, E. coli ATCC 25922

CCCCc1ccc(-c2ccc(C(=O)N[C@@H](CCCN)C(=O)N(C)[C@@H]3C(=O)N[C@@H](C)C(=O)N[C@H](C(=O)NCC#N)Cc4ccc(OCCN)c(c4)-c4cc3ccc4OCCN)cc2)cc1 [Compound 135]
MIC [1, 6]: 0.052 µg/mL (≈ 0.0586 µM)
MIC [2]: 0.023 µg/mL (≈ 0.0259 µM)
MIC [3, 7]: 0.22 µg/mL (≈ 0.248 µM)
IC50 [4]: 0.54 nM
bacterial burden in the thigh muscle [5]: dose-dependent reduction in bacterial burden

CCCCCCCCc1ccc(C(=O)N[C@@H](CCN)C(=O)N(C)[C@@H]2C(=O)N[C@@H](C)C(=O)N[C@H](C(=O)NCC#N)Cc3ccc(OCCN)c(c3)-c3cc2ccc3OCCN)c(C(F)(F)F)c1 [Compound 192]
MIC [1, 6]: 0.063 µg/mL (≈ 0.0683 µM)
MIC [2]: 0.012 µg/mL (≈ 0.013 µM)
MIC [3, 7]: 0.25 µg/mL (≈ 0.271 µM)
IC50 [4]: 0.89 nM

CCCCc1ccc(-c2cccc(C(=O)N[C@@H](CCCCN)C(=O)N(C)[C@@H]3C(=O)N[C@@H](C)C(=O)N[C@H](C(=O)NCC#N)Cc4ccc(OCCN)c(c4)-c4cc3ccc4OCCN)c2)cc1 [Compound 137]
MIC [1, 6]: 0.063 µg/mL (≈ 0.0698 µM)
MIC [2]: 0.063 µg/mL (≈ 0.0698 µM)
MIC [3, 7]: 4 µg/mL (≈ 4.43 µM)
IC50 [4]: 1.1 nM

CCCCc1cc(C)c(C(=O)N[C@@H](CCCN)C(=O)N(C)[C@@H]2C(=O)N[C@@H](C)C(=O)N[C@H](C(=O)NCC#N)Cc3ccc(OCCN)c(c3)-c3cc2ccc3OCCN)c(C)c1 [Compound 230]
MIC [1, 6]: 0.38 µg/mL (≈ 0.452 µM)
MIC [2]: 0.031 µg/mL (≈ 0.0369 µM)
MIC [3, 7]: 4 µg/mL (≈ 4.76 µM)
IC50 [4]: 1.3 nM

C#CCC(C)(C)COc1ccc(C(=O)N[C@@H](CCN)C(=O)N(C)[C@@H]2C(=O)N[C@@H](C)C(=O)N[C@H](C(=O)NCC#N)Cc3ccc(OCCN)c(c3)-c3cc2ccc3OCCN)c(C)c1 [Compound 284]
MIC [1, 8]: 0.13 µg/mL (≈ 0.15 µM)
MIC [2]: 0.012 µg/mL (≈ 0.0139 µM)
MIC [3, 9]: 1 µg/mL (≈ 1.15 µM)
IC50 [4]: 0.82 nM

Cc1cc(-c2cnc(CC(C)C)cn2)ccc1C(=O)N[C@@H](CCN)C(=O)N(C)[C@@H]1C(=O)N[C@@H](C)C(=O)N[C@H](C(=O)NCC#N)Cc2ccc(OCCN)c(c2)-c2cc1ccc2OCCN [Compound 178]
MIC [1, 6]: 0.25 µg/mL (≈ 0.281 µM)
MIC [2]: 0.039 µg/mL (≈ 0.0438 µM)
MIC [3, 7]: 1.5 µg/mL (≈ 1.69 µM)
IC50 [4]: 0.9 nM

CCCCCCCCCCCCC(=O)N[C@@H](CCN)C(=O)N(C)[C@@H]1C(=O)N[C@@H](C)C(=O)N[C@H](C(=O)NCC#N)Cc2ccc(OCCN)c(c2)-c2cc1ccc2OCCN [Compound 102]
MIC [1, 6]: 0.023 µg/mL (≈ 0.0276 µM)
MIC [2]: 0.0078 µg/mL (≈ 0.00935 µM)
MIC [3, 7]: 0.25 µg/mL (≈ 0.3 µM)
IC50 [4]: 0.52 nM

CCCCCCCc1cc(F)c(C(=O)N[C@@H](CCN)C(=O)N(C)[C@@H]2C(=O)N[C@@H](C)C(=O)N[C@H](C(=O)NCC#N)Cc3ccc(OCCN)c(c3)-c3cc2ccc3OCCN)c(Cl)c1 [Compound 437]
MIC [1, 6]: 0.063 µg/mL (≈ 0.0706 µM)
MIC [2]: 0.0078 µg/mL (≈ 0.00874 µM)
MIC [3, 7]: 0.25 µg/mL (≈ 0.28 µM)
IC50 [4]: 0.9 nM

Cc1cc(/C=C/c2ccccc2)ccc1C(=O)N[C@@H](CCN)C(=O)N(C)[C@@H]1C(=O)N[C@@H](C)C(=O)N[C@H](C(=O)NCC#N)Cc2ccc(OCCN)c(c2)-c2cc1ccc2OCCN [Compound 429]
MIC [1, 6]: 0.063 µg/mL (≈ 0.0734 µM)
MIC [2]: 0.0078 µg/mL (≈ 0.00909 µM)
MIC [3, 7]: 0.75 µg/mL (≈ 0.874 µM)
IC50 [4]: 0.81 nM

CCCCCCCCCCCNC(=O)N[C@@H](CCN)C(=O)N(C)[C@@H]1C(=O)N[C@@H](C)C(=O)N[C@H](C(=O)NCC#N)Cc2ccc(OCCN)c(c2)-c2cc1ccc2OCCN [Compound 403]
MIC [1, 6]: 0.029 µg/mL (≈ 0.0347 µM)
MIC [2]: 0.023 µg/mL (≈ 0.0275 µM)
MIC [3, 7]: 1.3 µg/mL (≈ 1.56 µM)
IC50 [4]: < 0.5 nM

CCCCCCCCCCCCCC(=O)N[C@@H](CCN)C(=O)N(C)[C@@H]1C(=O)N[C@@H](C)C(=O)N[C@H](C(=O)NCC#N)Cc2ccc(OCCN)c(c2)-c2cc1ccc2OCCN [Compound 337]
MIC [1, 6]: 0.031 µg/mL (≈ 0.0366 µM)
MIC [2]: 0.016 µg/mL (≈ 0.0189 µM)
MIC [3, 7]: 0.25 µg/mL (≈ 0.295 µM)
IC50 [4]: < 0.5 nM

CCCCCCCCc1cccc(C(=O)N[C@@H](CCCCN)C(=O)N(C)[C@@H]2C(=O)N[C@@H](C)C(=O)N[C@H](C(=O)NCC#N)Cc3ccc(OCCN)c(c3)-c3cc2ccc3OCCN)c1 [Compound 421]
MIC [1, 6]: 0.063 µg/mL (≈ 0.0714 µM)
MIC [2]: 0.063 µg/mL (≈ 0.0714 µM)
MIC [3, 7]: 2 µg/mL (≈ 2.27 µM)
IC50 [4]: 1.6 nM

CCCCCCCCCCCCCC(=O)N[C@@H](CCN)C(=O)N(C)[C@@H]1C(=O)N[C@@H](C)C(=O)N[C@H](C(=O)NCC#N)Cc2ccc(OCC)c(c2)-c2cc1ccc2OCCN [Compound 324]
MIC [1, 6]: 0.25 µg/mL (≈ 0.3 µM)
MIC [2]: 0.031 µg/mL (≈ 0.0372 µM)
MIC [3, 7]: 1 µg/mL (≈ 1.2 µM)
IC50 [4]: 0.82 nM

CCCCCCCCCCCCCC(=O)N[C@@H](CCCN)C(=O)N(C)[C@@H]1C(=O)N[C@@H](C)C(=O)N[C@H](C(=O)NCC#N)Cc2ccc(OCCN)c(c2)-c2cc1ccc2OCCN [Compound 336]
MIC [1, 6]: 0.063 µg/mL (≈ 0.0731 µM)
MIC [2]: 0.023 µg/mL (≈ 0.0267 µM)
MIC [3, 7]: 0.25 µg/mL (≈ 0.29 µM)
IC50 [4]: < 0.5 nM

CCCCCCCCCCCCCC(=O)N1C[C@@H](N)CC1C(=O)N(C)[C@@H]1C(=O)N[C@@H](C)C(=O)N[C@H](C(=O)NCC#N)Cc2ccc(OCCN)c(c2)-c2cc1ccc2OCCN (stereo partly shown) [Compound 481]
MIC [1, 6]: 0.047 µg/mL (≈ 0.0546 µM)
MIC [2]: 0.0078 µg/mL (≈ 0.00907 µM)
MIC [3, 7]: 0.25 µg/mL (≈ 0.291 µM)
IC50 [4]: 1.2 nM

C[C@@H]1NC(=O)[C@@H](N(C)C(=O)[C@H](CCCCN)NC(=O)c2ccc(/C=C/c3ccccc3)cc2)c2ccc(OCCN)c(c2)-c2cc(ccc2OCCN)C[C@@H](C(=O)NCC#N)NC1=O [Compound 110]
MIC [1, 8]: 0.19 µg/mL (≈ 0.218 µM)
MIC [2]: 0.063 µg/mL (≈ 0.0722 µM)
MIC [3, 9]: 8 µg/mL (≈ 9.17 µM)
IC50 [4]: 0.96 nM

CCCCCCCCc1ccc(C(=O)N[C@@H](CCN)C(=O)N(C)[C@@H]2C(=O)N[C@@H](C)C(=O)N[C@H](C(=O)NCC#N)Cc3ccc(OCCN)c(c3)-c3cc2ccc3OCCN)c(O)c1 [Compound 193]
MIC [1, 6]: 0.063 µg/mL (≈ 0.0724 µM)
MIC [2]: 0.047 µg/mL (≈ 0.054 µM)
MIC [3, 7]: 0.5 µg/mL (≈ 0.575 µM)
IC50 [4]: 0.93 nM

C[C@@H]1NC(=O)[C@@H](N(C)C(=O)[C@H](CCCCN)NC(=O)c2cccc(-c3ccc(Cl)cc3)c2)c2ccc(OCCN)c(c2)-c2cc(ccc2OCCN)C[C@@H](C(=O)NCC#N)NC1=O [Compound 113]
MIC [1, 8]: 0.19 µg/mL (≈ 0.216 µM)
MIC [2]: 0.13 µg/mL (≈ 0.148 µM)
MIC [3, 9]: 32 µg/mL (≈ 36.3 µM)
IC50 [4]: 0.51 nM
